Measured values published in BindingDB's records for doi:10.7270/Q2736PC9 (Broad Institute, 2010).

Target: T1, Alkanal monooxygenase alpha chain (Vibrio harveyi, UniProt P07740)
T1 sequence (P07740 whole entry): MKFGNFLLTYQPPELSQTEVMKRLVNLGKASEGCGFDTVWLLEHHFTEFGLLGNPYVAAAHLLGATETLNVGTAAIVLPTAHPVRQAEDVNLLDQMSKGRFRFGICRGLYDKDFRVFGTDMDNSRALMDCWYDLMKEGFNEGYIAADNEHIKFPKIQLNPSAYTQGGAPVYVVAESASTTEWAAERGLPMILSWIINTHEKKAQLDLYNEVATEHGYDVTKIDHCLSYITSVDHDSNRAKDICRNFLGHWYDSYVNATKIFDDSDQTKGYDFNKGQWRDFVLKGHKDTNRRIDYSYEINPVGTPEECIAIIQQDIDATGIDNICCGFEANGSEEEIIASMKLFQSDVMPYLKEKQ
Assay: bacterial growth suppression, V. harveyi – absorbance, counter-screen for quorum sensing inhibitor project, dose response (AID 434943)

| EC50 [µM] | SMILES |
| --- | --- |
| > 160 | COc1cc(NC(=O)CN2C(=O)NC(c3ccccc3)(c3ccccc3)C2=O)cc(OC)c1 [MLS001176525] |
| > 160 | C=Cn1c(C(=O)O)ccc1-c1ccc(CC)cc1 |
| > 160 | Cc1cccc(NS(=O)(=O)c2ccc(Oc3ccccc3)cc2)n1 [SMR000071466] |
| > 160 | CN(C)S(=O)(=O)c1ccc(NC(=S)NC(=O)Cc2ccccc2)cc1 [N-[[4-(dimethylsulfamoyl)phenyl]carbamothioyl]-2-phenyl-ethanamide] |
| > 160 | CCc1ccc(S(=O)(=O)Nc2ccc(Br)cn2)cc1 [MLS001211346] |
| > 160 | Cn1cnc(S(=O)(=O)Nc2ccc(OC(F)(F)F)cc2)c1 [SMR000314513] |
| > 160 | CCCc1ccc(S(=O)(=O)N(C)S(=O)(=O)c2ccc(F)cc2)cc1 [N-(4-fluorophenyl)sulfonyl-N-methyl-4-propylbenzenesulfonamide] |
